Species: Mus musculus
Assay: Antiinflammatory activity against croton oil-induced ear swelling in BALB/c mouse after 6 hrs
Format: functional

COc1cc(C(=O)O[C@H]2[C@@H]3C=CO[C@@H](O[C@@H]4O[C@H](CO)[C@@H](O)[C@H](O)[C@H]4O)[C@@H]3[C@@]3(CO)O[C@@H]23)ccc1O [PICROSIDE II]
Activity: 46%

Source: ChEMBL document CHEMBL1144058, “Pikuroside: a novel iridoid from Picrorhiza kurroa” (1999)
